Results as given in patent US4118561A, “7-(Substituted)-7H-pyrrolo[3,2-f]quinazoline-1,3-diamines” (priority 1977, dated 1978).
Values after ≈ are worked out from the molar mass of the structure shown. Where two headings read alike, the source gives them in different places.

Tests used:
S. paratyphi 11737 = assay: In vitro antibacterial activity (MIC), S. paratyphi 11737; type: cell-based; settings: Salmonella enterica, 18 h
Proteus mirabilis 190 = assay: In vivo antibacterial synergism (mouse), Proteus mirabilis 190; design: species or system Proteus mirabilis (infected mice, CD-1); settings: for ED50: Proteus mirabilis, 190, po, 336 h, read-out: PD50 (agent alone); for PD50 SM/Cpd. (compound part): 0 hours, 20160 min
Method: (§1) The test agents are weighed, suspended in 0.5% aqueous carboxymethyl cellulose, homogenized (glass tissue grinder) and diluted according to the design of the experiment. Mice (male, 18±1 g., CD-1 strain) are pre-weighed, pooled, infected at random intraperitoneally with a 0.5 ml. standardized suspension (LD95 ±5%) of the bacterial organism in 5% gastric mucin and treated at random with single doses of the test agents either at the time of infection or six hours after infecting. The treated groups consist of ten mice per dosage level. Deaths are recorded daily for 14 days and the PD50 (mice are treated at time of infection) and CD50 (mice are treated six hours after infecting) values are calculated by the method of Reed and Muench [Amer. J. Hyg., 27, 493 (1938)].

[1] = Antimalarial blood schizonticidal test in mice; type: in vivo, Plasmodium berghei (infected ICR/HA Swiss mice); design: ΔMST (increase in mean survival time): unit: days; settings: mouse, in vivo, sc, single dose, read-out: Highest Non-Lethal Dose
Procedure, shortened: (§2)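 Single s.c. doses (peanut oil vehicle, graded levels) given 72 h after i.p. inoculation of young Swiss mice with P. berghei KBG 173 blood (4 × 10^7 parasitized cells). Activity judged by cures (alive at 60 days) or significant mean survival gain over untreated controls, without drug-related deaths.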

[2] = test system: Plasmodium berghei KBG 173; assay: Antimalarial blood schizonticidal test in mice; type: in vivo, Plasmodium berghei (infected ICR/HA Swiss mice); design: ΔMST (increase in mean survival time): unit: days; settings: for ED100 / minimal effective dose: Plasmodium berghei, sc, single dose; for ED100: read-out: Lowest Dose Curing All Mice; for minimal effective dose: read-out: Min. Curing Dose; for Cure/Treat at Min. Curing Dose: at the Min. Curing Dose
Procedure, shortened: as §2

P. cynomolgi = assay: Activity against P. cynomolgi infections in Rhesus monkeys; type: in vivo, P. cynomolgi (infected Rhesus monkeys); settings: Plasmodium cynomolgi, in Macaca mulatta, 168 h
[3] = test system: lymphocytic leukemia P-388; assay: Activity in mice against lymphocytic leukemia P-388; type: in vivo; settings: Mus musculus, P388, ip, read-out: T/C
[4] = Acute toxicity in mice, i.p. single dose; type: in vivo, Charles River COBS CD Strain Albino mice, male; settings: mouse, in vivo, ip; mice, single dose, 14 days
Method: (§3) Single doses of 7-(phenylmethyl)-7H-pyrrolo[3,2-f]-quinazoline-1,3-diamine (active moiety) were intraperitoneally administered in 0.5% carboxymethylcellulose at a constant dose volume of 10 ml./kg., to groups of 10 mice/dose level. (Charles River COBS CD Strain Albino mice, male, weight 21.0-25.29.) Daily observations were made on all mice for the duration of experiment (14 days). […] (95% confidence limits of 48.6-93.4) all deaths occurred 4-5 days post-drug-administration.
(§4) These effects lasted up to 6 days in the low dose animals and 14 days in those animals having received the highest dose. All mice alive on day 14 were sacrificed and necropsied.

mice = assay: Acute toxicity in mice, i.p. single dose; type: in vivo, Charles River COBS CD Strain Albino mice, male
Method: as §3, §4

E. coli 9637 = assay: In vitro antibacterial activity (MIC), E. coli 9637; settings: Escherichia coli, 9637, 18 h
S. aureus Smith = assay: In vitro antibacterial activity (MIC), S. aureus Smith; settings: Staphylococcus aureus, 18 h
S. aureus 53-180 = assay: In vitro antibacterial activity (MIC), S. aureus 53-180; settings: Staphylococcus aureus, 53180, 18 h
P. vulgaris 6896 = assay: In vitro antibacterial activity (MIC), P. vulgaris 6896; settings: Proteus vulgaris, 6896, 18 h
N. catarrhalis 8193 = assay: In vitro antibacterial activity (MIC), N. catarrhalis 8193; settings: 18 h
K. pneumoniae 10031 = assay: In vitro antibacterial activity (MIC), K. pneumoniae 10031; settings: Klebsiella pneumoniae, 10031, 18 h
bacterial infections = assay: Synergism with sulfamethoxazole against bacterial infections in mice, oral; type: in vivo
Method: The invention also provides compounds which will potentiate the antibacterial effects of sulfa drugs.
as §1

[5] = test system: strains of P. berghei resistant to chloroquine, sulfones, cycloguanil, and pyrimethamine; assay: Activity against resistant strains of P. berghei in mice; type: in vivo, P. berghei (infected mice)
Description: Activity against strains of P. berghei resistant to chloroquine, sulfones, cycloguanil, and pyrimethamine, is shown by the testing of 7-(phenylmethyl)-7H-pyrrolo[3,2-f]quinazoline-1,3-diamine and 7-[(2,5-dimethylphenyl)methyl]-7H-pyrrolo[3,2-f]quinazoline-1,3-diamine in mice against such resistant strains.

[6] = mice, p.o., with SM 1.56 mg. per kg.
[7] = infected mice, highest dose with no deaths for any reason
[8] = mice, p.o., treated 0 hours after infecting
[9] = Rhesus monkeys, oral, seven days, read-out: CD50 (the source's name)

SMILES: Nc1nc(N)c2c(ccc3c2ccn3Cc2ccccc2)n1 [Example 2, 7-(Phenylmethyl)-7H-pyrrolo[3,2-f]quinazoline-1,3-diamine]
- MIC (S. paratyphi 11737): 1.95 µg/mL (≈ 6.74 µM)
- ED50 (Proteus mirabilis 190): 22.5 mg/kg
- PD50 SM/Cpd. (compound part) (Proteus mirabilis 190; [6]): 7.78 mg. per kg.
- MTD [1, 7]: 160 mg/kg
- ED100 ([2]; 1440 h, s.c., 60-day survivors): 80 mg/kg
- minimal effective dose ([2]; this is the lowest dose tested): 20 mg/kg
- Cure/Treat at Min. Curing Dose ([2]; s.c., 60-day survivors): 2/5
- ΔMST (increase in mean survival time) ([2]; s.c., dose 20 mg. per kg.): 10.9
- ED50 (P. cynomolgi; po, read-out: CD50): 0.1 mg/kg
- response vs control in vivo at 10 mg/kg [3]: 149%
- LD50 at 336 h [4]: 54.5 mg/kg
- duration of effects (mice; animals having received the highest dose, i.p.): 14 days
- signs observed on day 2 post-drug-administration (mice; day 2, i.p. single dose): rough coats and decreased fecal elimination
- duration of effects (mice; low dose animals, i.p.): up to 6 days
- necropsy, macroscopic (mice; mice alive on day 14): Macroscopically, the tissues appeared normal
- time of deaths post-drug-administration (mice; mice, i.p., single dose): 4 to 5 days
- LD50, 95% confidence limits (mice; mice, i.p., single dose, 14 days): 48.6 to 93.4 mg/kg
- signs in all mice after i.p. injection (mice; within 1 hour after i.p. injection): decreased spontaneous motor activity, bradypnea, ptosis, and stretching with indrawn sides in all mice
- MIC (E. coli 9637): 1.95 µg/mL (≈ 6.74 µM)
- MIC (S. aureus Smith): 1.95 µg/mL (≈ 6.74 µM)
- MIC (S. aureus 53-180): 1.95 µg/mL (≈ 6.74 µM)
- MIC (P. vulgaris 6896): 7.81 µg/mL (≈ 27 µM)
- MIC (N. catarrhalis 8193): 0.061 µg/mL (≈ 0.211 µM)
- MIC (K. pneumoniae 10031): 1.95 µg/mL (≈ 6.74 µM)

SMILES: N#Cc1cccc(Cn2ccc3c4c(N)nc(N)nc4ccc32)c1 [Example 15, 7-[(3-cyanophenyl)methyl]-7H-pyrrolo[3,2-f]-quinazoline-1,3-diamine]
- MIC (S. paratyphi 11737): 0.488 µg/mL (≈ 1.55 µM)
- synergistic effect with sulfamethoxazole (bacterial infections): synergistic effect
- ED50 (Proteus mirabilis 190; [8]): 8.8 mg/kg
- PD50 SM/Cpd. (compound part) (Proteus mirabilis 190; [6]): 2.67 mg. per kg.
- MTD [1, 7]: 40 mg/kg
- ED100 ([2]; 1440 h, s.c., 60-day survivors): 10 mg/kg
- minimal effective dose ([2]; 1440 h, s.c., 60-day survivors): 1.25 mg/kg
- Cure/Treat at Min. Curing Dose ([2]; s.c., 60-day survivors): 2/5
- ΔMST (increase in mean survival time) ([2]; s.c., dose 1.25 mg. per kg.): 9.6
- MIC (E. coli 9637): 0.122 µg/mL (≈ 0.388 µM)
- MIC (S. aureus Smith): 0.061 µg/mL (≈ 0.194 µM)
- MIC (S. aureus 53-180): 0.031 µg/mL (≈ 0.0986 µM)
- MIC (P. vulgaris 6896): 0.976 µg/mL (≈ 3.1 µM)
- MIC (N. catarrhalis 8193): 0.0038 µg/mL (≈ 0.0121 µM)
- MIC (K. pneumoniae 10031): 0.031 µg/mL (≈ 0.0986 µM)

SMILES: Cc1ccc(C)c(Cn2ccc3c4c(N)nc(N)nc4ccc32)c1 [Example 23, 7-[(2,5-dimethylphenyl)methyl]-7H-pyrrolo[3,2-f]quinazoline-1,3-diamine]
- MIC (S. paratyphi 11737): 125 µg/mL (≈ 394 µM)
- MTD ([1]; this is the highest dose tested): 640 mg/kg
- ED100 ([2]; 1440 h, s.c., 60-day survivors): 40 mg/kg
- minimal effective dose ([2]; 1440 h, s.c., 60-day survivors): 10 mg/kg
- Cure/Treat at Min. Curing Dose ([2]; s.c., 60-day survivors): 3/5
- ΔMST (increase in mean survival time) ([2]; s.c., dose 5 mg. per kg.): 7.9
- ED50 (P. cynomolgi; [9]): 1 mg/kg
- Activity against resistant strains [5]: Activity
- response vs control in vivo at 10 mg/kg ([3]; mice, I.P., 10 mg/kg): 142%
- MIC (E. coli 9637): 31.3 µg/mL (≈ 98.6 µM)
- MIC (S. aureus Smith): 3.9 µg/mL (≈ 12.3 µM)
- MIC (S. aureus 53-180): 0.976 µg/mL (≈ 3.08 µM)
- MIC (P. vulgaris 6896): 250 µg/mL (≈ 788 µM)
- MIC (N. catarrhalis 8193): 0.244 µg/mL (≈ 0.769 µM)
- MIC (K. pneumoniae 10031): 1.95 µg/mL (≈ 6.14 µM)

SMILES: COc1ccc(Cn2ccc3c4c(N)nc(N)nc4ccc32)cc1 [Example 34, 7-[(4-methoxyphenyl)methyl]-7H-pyrrolo[3,2-f]quinazoline-1,3-diamine]
- MIC (S. paratyphi 11737): 0.976 µg/mL (≈ 3.06 µM)
- MTD [1, 7]: 160 mg/kg
- ED100 ([2]; 1440 h, s.c., 60-day survivors): 20 mg/kg
- minimal effective dose ([2]; 1440 h, s.c., 60-day survivors): 5 mg/kg
- Cure/Treat at Min. Curing Dose ([2]; s.c., 60-day survivors): 2/5
- ΔMST (increase in mean survival time) ([2]; s.c., dose 5 mg. per kg.): 11.2
- ED50 (P. cynomolgi; [9]): 0.316 mg/kg
- MIC (E. coli 9637): 0.488 µg/mL (≈ 1.53 µM)
- MIC (S. aureus Smith): 0.976 µg/mL (≈ 3.06 µM)
- MIC (S. aureus 53-180): 0.244 µg/mL (≈ 0.764 µM)
- MIC (P. vulgaris 6896): 0.976 µg/mL (≈ 3.06 µM)
- MIC (N. catarrhalis 8193): 0.0152 µg/mL (≈ 0.0476 µM)
- MIC (K. pneumoniae 10031): 0.061 µg/mL (≈ 0.191 µM)

SMILES: N#Cc1ccc(-n2ccc3c4c(N)nc(N)nc4ccc32)cc1 [Example 69, 7-(4-Cyanophenyl)-7H-pyrrolo[3,2-f]-quinazoline-1,3-diamine]
- MIC (S. paratyphi 11737): 31.3 µg/mL (≈ 104 µM)
- synergistic effect with sulfamethoxazole (bacterial infections): synergistic effect
- ED50 (Proteus mirabilis 190; [8]): > 400 mg/kg
- PD50 SM/Cpd. (compound part) (Proteus mirabilis 190; mice, p.o., with SM 0.39 mg. per kg.): > 12.5 mg. per kg.
- PD50 SM/Cpd. (compound part) (Proteus mirabilis 190; mice, p.o., with SM 0.78 mg. per kg.): > 12.5 mg. per kg.
- PD50 SM/Cpd. (compound part) (Proteus mirabilis 190; [6]): 9.39 mg. per kg.
- PD50 SM/Cpd. (compound part) (Proteus mirabilis 190; mice, p.o., with SM 3.11 mg. per kg.): 2.55 mg. per kg.
- MTD [1, 7]: 20 mg/kg
- ED100 ([2]; 1440 h, s.c., 60-day survivors): 20 mg/kg
- minimal effective dose ([2]; 1440 h, s.c., 60-day survivors): 5 mg/kg
- Cure/Treat at Min. Curing Dose ([2]; s.c., 60-day survivors): 3/5
- ΔMST (increase in mean survival time) ([2]; s.c., dose 2.5 mg. per kg.): 11
- MIC (E. coli 9637): 0.976 µg/mL (≈ 3.25 µM)
- MIC (S. aureus Smith): 0.976 µg/mL (≈ 3.25 µM)
- MIC (S. aureus 53-180): 0.488 µg/mL (≈ 1.62 µM)
- MIC (P. vulgaris 6896): 125 µg/mL (≈ 416 µM)
- MIC (N. catarrhalis 8193): 0.031 µg/mL (≈ 0.103 µM)
- MIC (K. pneumoniae 10031): 0.122 µg/mL (≈ 0.406 µM)
